# Measured values reported in patent US20230233533A1, “COMPOSITIONS, METHODS OF TREATING AND PREVENTING FUNGAL INFECTIONS, AND METHODS OF INHIBITING PRP8 INTEIN EXPRESSION” (Health Research, Inc., priority 2020, published 2023).
# Assays:
# [1] = molecular target: T1, Prp8 intein (Cryptococcus gattii, UniProt E6R027); experiment: Split GFP-Prp8i intein splicing assay; type: biochemical; conditions: split GFP-Prp8 intein splicing
# Protocol: Cloning, expression and purfication—The split GFP-Prp8i was constructed using a mega-PCR mutagenesis approach. […] After digestion with Dpn I restriction enzyme, the PCR product was transformed into DH5α Escherichia coli. Clones were verified by plasmid DNA sequencing. The expression, refolding and purification of the GFP-Prp8i fusion protein were carried out as described previously.
# […] Then 100 μl 2×TCEP was added to a final concentration of 20 μM. The reactions were incubated at 25° C. overnight. […] Two readings were taken, one prior to addition of TCEP (I0) and one after incubation overnight with TCEP (If). Fluorescence/luminescence differences (ΔFluorescence or ΔLuminescence) were defined as If−I0 for each well. […] DMF control served as 100% splicing activity.
# (§1) Split GFP-Prp8 and CJGFP-Prp8 intein splicing assays—Using black and clear bottom 96-well plates, the DPNB-treated, -refolded and -concentrated GFP-Prp8 or CfGFP-Prp8 fusion protein (0.5 μM) was incubated with compounds or Dimethylsulfoxide (DMSO) solvent control for 30 min at 25° C. in a 100 μl intein splicing buffer (20 mM Bis-tris propane, 0.5 M NaCl, 0.5 M arginine, 1 mM EDTA, and 0.05% CHAPS). Then 100 μl 2×TCEP was added to a final concentration of 20 μM. The reactions were incubated at 25° C. overnight. […] Two readings were taken, one prior to addition of TCEP (I0) and one after incubation overnight with TCEP (If). Fluorescence/luminescence differences (ΔFluorescence or ΔLuminescence) were defined as If−I0 for each well. […] DMSO control served as 100% splicing activity.
# [2] = molecular target: T1, Prp8 intein; experiment: Split Renilla luciferase RLuc-Prp8 intein splicing assay; type: biochemical; conditions: split Renilla luciferase RLuc-Prp8 intein splicing
# Protocol: Split luciferase Prp8 intein splicing assay—The split RLuc-Prp8 fusion protein was carried out and monitored using a Veritas luminometer, as described previously.
# (§2) Split luciferase RLuc-Prp8 and NnLuc-Prp8 intein splicing assays—The split RLuc-Prp8 intein splicing assay was carried out and monitored using a Veritas luminometer, as described previously. […] Microbes. Infect. […] For NnLuc-Prp8 intein splicing assay, the NnLuc-prp8 is diluted in assay buffer (50 mM Tris, 0.1% BSA, 1 mM EDTA, pH 7.4) and 50 ul is added to each well in 96 well black plates. Test molecules or the solvent was added and incubated for 30 to 60 min. A splicing inducer TCEP (50 ul, 100 μM) is added and incubated for 24 h. Luciferase substrate (Furimazine, 25 ul 1:10,000 diluted) is added and luminescence is read using a luminescence reader. IC50 is calculated using Graphpad prism.
# [3] = in vitro; type: cell-based, human; conditions: human, CC50 A549
# Protocol: Cytotoxicity—Cytotoxicity assays were carried out using human lung carcinoma cell line A549, as described (Chen et al., “Selective Inhibition of the West Nile Virus Methyltransferase by Nucleoside Analogs,” Antiviral Research 97(3):232-239 (2013), which is hereby incorporated by reference in its entirety). Briefly, the A549 cells (5×10^3) were incubated with/without compounds in a 96-well plate at 37° C. for 48 h. Cell viability was determined using the MTT assay (ATCC) as was described previously (Chen et al., “Selective Inhibition of the West Nile Virus Methyltransferase by Nucleoside Analogs,” Antiviral Research 97(3):232-239 (2013) and Brecher et al., “Identification and Characterization of Novel Broad-Spectrum Inhibitors of the Flavivirus Methyltransferase,” ACS Infectious Diseases 1(8):340-349 (2015), both of which are hereby incorporated by reference in their entirety). N=3.
# Cytotoxicity—Cytotoxicity assays were carried out using human lung carcinoma cell line A549, as described. Chen et al., “Selective Inhibition of the West Nile Virus Methyltransferase by Nucleoside Analogs,” Antiviral Res. 97:232-9 (2013), which is hereby incorporated by reference in its entirety. Briefly, the A549 cells (5×10^3) were incubated with/without compounds in a 96-well plate at 37° C. for 48 h. Cell viability was determined using the MTT assay (ATCC) as was described previously (Chen et al., “Selective Inhibition of the West Nile Virus Methyltransferase by Nucleoside Analogs,” Antiviral Research 97(3):232-239 (2013) and Brecher et al., “Identification and Characterization of Novel Broad-Spectrum Inhibitors of the Flavivirus Methyltransferase,” ACS Infectious Diseases 1(8):340-349 (2015), both of which are hereby incorporated by reference in their entirety). N=3.
# [4] = tested on: C. neoformans H99 strain; experiment: Fungal susceptibility test, broth microdilution MIC; type: cell-based, Cryptococcus neoformans; conditions: Cryptococcus neoformans, H99STRAIN; C. neoformans H99, microbroth dilution; read-out: MIC H99
# Protocol: Fungal susceptibility test—The fungal susceptibility test was carried out with a compound concentration series as described. […] The broth microdilution method was used to determine the compound MIC values against C. neoformans.
# Fungal susceptibility test—The fungal susceptibility test was carried out with a compound concentration series as described. […] Microbes. Infect. […] The broth microdilution method was used to determine the compound MIC values against C. neoformans.
# [5] = molecular target: T1, Prp8 intein; experiment: Split Cys-free (Cf) GFP-Prp8 intein splicing assay; type: biochemical; conditions: read-out: IC50 CfGFP-Prp8 (converted)
# Protocol: (§3) The constructs for Cys-free (Cf) GFP-Prp8 and Cys-free nanoluciferase NnLuc-Prp8 were codon-optimized, synthesized, and cloned into the pET28a vector using the NcoI and XhoI sites by Gene Universal (Gene Universal, Newark Del.). […] The expression, refolding and purification of the CfGFP-Prp8 and NnLuc-Prp8 fusion proteins were carried out as described previously. […] Microbes. Infect.
# as §1
# [6] = molecular target: T1, Prp8 intein; experiment: Split nanoluciferase NnLuc-Prp8 intein splicing assay; type: biochemical
# Protocol: as §3, §2
# T1 sequence (E6R027 entry or part of it): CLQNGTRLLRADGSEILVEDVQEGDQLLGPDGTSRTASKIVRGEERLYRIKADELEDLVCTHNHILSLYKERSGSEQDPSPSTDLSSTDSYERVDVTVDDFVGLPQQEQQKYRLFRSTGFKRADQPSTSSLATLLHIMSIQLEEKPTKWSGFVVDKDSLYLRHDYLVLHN
SMILES,IC50 [1],IC50 [2],CC50 at 48 h [3],MIC [4],IC50 [5],IC50 [6]
"O=C(Nc1ccc(F)cc1F)c1ncsc1S(=O)(=O)c1ccc(Cl)cc1 [JMX0515, 5-((4-Chlorophenyl)sulfonyl)-N-(2,4-difluorophenyl)thiazole-4-carboxamide]",> 50 µM,37.7 µM,210 µM,> 100 µM,,
"O=C(Nc1ccccc1F)c1ncsc1S(=O)(=O)c1ccc(Cl)cc1 [JMX0516, 5-((4-Chlorophenyl)sulfonyl)-N-(2-fluorophenyl)thiazole-4-carboxamide]",49.3 µM,13.3 µM,144 µM,> 100 µM,,
"O=C(Nc1cccc(F)c1)c1ncsc1S(=O)(=O)c1ccc(Cl)cc1 [JMX0517, 5-((4-Chlorophenyl)sulfonyl)-N-(3-fluorophenyl)thiazole-4-carboxamide]",> 50 µM,28.4 µM,161 µM,> 100 µM,,
"O=C(Nc1ccc(Cl)cc1)c1ncsc1S(=O)(=O)c1ccc(Cl)cc1 [JMX0518, N-(4-Chlorophenyl)-5-((4-chlorophenyl)sulfonyl)thiazole-4-carboxamide]",28 µM,6.5 µM,57.3 µM,50 µM,,
"O=C(Nc1ccc(Cl)cc1Cl)c1ncsc1S(=O)(=O)c1ccc(Cl)cc1 [JMX0519, 5-((4-Chlorophenyl)sulfonyl)-N-(2,4-dichlorophenyl)thiazole-4-carboxamide]",50 µM,11.7 µM,245 µM,> 100 µM,,
"O=C(Nc1ccc(F)c(F)c1)c1ncsc1S(=O)(=O)c1ccc(Cl)cc1 [JMX0520, 5-((4-Chlorophenyl)sulfonyl)-N-(3,4-difluorophenyl)thiazole-4-carboxamide]",> 50 µM,27.5 µM,81.6 µM,> 100 µM,,
"O=C(Nc1ccc(C(F)(F)F)cc1)c1ncsc1S(=O)(=O)c1ccc(Cl)cc1 [JMX0521, 5-((4-Chlorophenyl)sulfonyl)-N-(4-(trifluoromethyl)phenyl)thiazole-4-carboxamide]",50 µM,29.3 µM,54.1 µM,> 100 µM,,
"O=C(Nc1cc(F)cc(C(F)(F)F)c1)c1ncsc1S(=O)(=O)c1ccc(Cl)cc1 [JMX0522, 5-((4-Chlorophenyl)sulfonyl)-N-(3-fluoro-5-(trifluoromethyl)phenyl) thiazole-4-carboxamide]",23.5 µM,20.2 µM,97.7 µM,100 µM,,
"O=C(Nc1ccc(C(F)(F)F)nc1)c1ncsc1S(=O)(=O)c1ccc(Cl)cc1 [JMX0523, 5-((4-Chlorophenyl)sulfonyl)-N-(6-(trifluoromethyl)pyridin-3-yl) thiazole-4-carboxamide]",> 50 µM,37.1 µM,114 µM,> 100 µM,,
"O=C(Nc1ccc(F)nc1)c1ncsc1S(=O)(=O)c1ccc(Cl)cc1 [JMX0524, 5-((4-Chlorophenyl)sulfonyl)-N-(6-fluoropyridin-3-yl)thiazole-4-carboxamide]",> 50 µM,7.8 µM,174 µM,> 100 µM,,
"O=C(Nc1ccc(F)cc1)c1ncsc1S(=O)(=O)c1ccc(Cl)cc1 [JMX0525, 5-((4-Chlorophenyl)sulfonyl)-N-(4-fluorophenyl)thiazole-4-carboxamide]",> 50 µM,6.4 µM,309 µM,> 100 µM,,
"O=C(NCc1ccc(F)cc1)c1ncsc1S(=O)(=O)c1ccc(Cl)cc1 [JMX0541, 5-((4-Chlorophenyl)sulfonyl)-N-(4-fluorobenzyl)thiazole-4-carboxamide]",> 50 µM,10.6 µM,114 µM,100 µM,,
"O=C(Nc1ccc(F)cc1)c1nnsc1Sc1ccc(Cl)cc1 [JMX0564, 5-((4-Chlorophenyl)thio)-N-(4-fluorophenyl)-1,2,3-thiadiazole-4-carboxamide]",55.7 µM,15.8 µM,418 µM,> 100 µM,,
"O=C(Nc1ccc(F)cc1)c1nnsc1[S+]([O-])c1ccc(Cl)cc1 (centres unmarked) [JMX0565-1, 5-((4-Chlorophenyl)sulfinyl)-N-(4-fluorophenyl)-1,2,3-thiadiazole-4-carboxamide]",7.1 µM,16.6 µM,32.5 µM,0.097 µM,,
"O=C(Nc1ccc(F)cc1)c1nnsc1S(=O)(=O)c1ccc(F)cc1F [JMX1062, 5-((2,4-Difluorophenyl)sulfonyl)-N-(4-fluorophenyl)-1,2,3-thiadiazole-4-carboxamide]",,,65.4 µM,> 50 µM,38.2 µM,21.7 µM
"O=C(Nc1ccc(F)cc1)c1nnsc1S(=O)(=O)c1cccc(C(F)(F)F)c1 [JMX1063, N-(4-Fluorophenyl)-5-((3-(trifluoromethyl)phenyl)sulfonyl)-1,2,3-thiadiazole-4-carboxamide]",,,137 µM,6.25 µM,35 µM,28.2 µM
"O=C(Nc1ccc(F)cc1)c1nnsc1[S+]([O-])c1cccc(C(F)(F)F)c1 (centres unmarked) [JMX1063-2, N-(4-Fluorophenyl)-5-((3-(trifluoromethyl)phenyl)sulfinyl)-1,2,3-thiadiazole-4-carboxamide]",,,93.8 µM,6.25 µM,29.2 µM,12.4 µM
"O=C(Nc1ccc(F)cc1)c1nnsc1S(=O)(=O)c1ccc(Cl)c(Cl)c1 [JMX1064, 5-((3,4-Dichlorophenyl)sulfonyl)-N-(4-fluorophenyl)-1,2,3-thiadiazole-4-carboxamide]",,,78.4 µM,1.56 µM,32.6 µM,26 µM
"O=C(Nc1ccc(F)cc1)c1nnsc1[S+]([O-])c1ccc(Cl)c(Cl)c1 (centres unmarked) [JMX1064-2, 5-((3,4-Dichlorophenyl)sulfinyl)-N-(4-fluorophenyl)-1,2,3-thiadiazole-4-carboxamide]",,,122 µM,> 50 µM,19.8 µM,35 µM
"O=C(Nc1cccc(F)c1)c1nnsc1S(=O)(=O)c1ccc(Cl)cc1 [JMX 871, 5-((4-Chlorophenyl)sulfonyl)-N-(3-fluorophenyl)-1,2,3-thiadiazole-4-carboxamide]",,,140 µM,3.12 µM,35.4 µM,27.1 µM
